The values below come from patent US20250206732A1, “COMPOUNDS AND METHODS FOR THE TARGETED DEGRADATION OF KRAS” (Arvinas Operations, Inc., priority 2022, published 2025).

A value given as a limit tells only on which side of the number the result lay.

This assay addresses T1, AsPC-1 HiBiT-KRASG12D (Homo sapiens, UniProt P01116, G12D).
T1 construct: insert the HiBiT tag onto the N-terminus of one or more of the endogenous KRAS alleles; endogenous in cells; host or cells: AsPC-1 (ATCC CRL-1682), CRISPR-Cas9 knock-in clone, one tagged allele
The assay is described as follows: HiBiT degradation assay (G12D), AsPC-1 HiBiT-KRASG12D cells. It is filed as cell-based. The conditions noted are these: 24 hours treatment; for Dmax: ASPC1, AsPC-1 HiBiT-KRASG12D cells, maximum degradation observed; for DC50: AsPC-1 HiBiT-KRASG12D cells, HiBiT luminescence. In outline:
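AsPC-1 cells carried a CRISPR knock-in of an N-terminal HiBiT tag on endogenous KRAS G12D. After 24 h compound treatment at 37 °C (triplicate), viability was read by alamar blue (4 h, fluorescence, normalized to DMSO). HiBiT-KRAS levels were then measured by Nano-Glo HiBiT lytic luminescence after 45 min at room temperature.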

T1 sequence (P01116 1-188 isoform P01116-2 G12D): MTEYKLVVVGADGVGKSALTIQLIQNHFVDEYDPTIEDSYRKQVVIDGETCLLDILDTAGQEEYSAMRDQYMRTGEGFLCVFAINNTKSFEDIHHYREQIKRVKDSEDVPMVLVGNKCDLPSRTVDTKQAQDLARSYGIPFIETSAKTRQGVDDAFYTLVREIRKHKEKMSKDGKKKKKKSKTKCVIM

As to `CCc1cccc2cc(O)cc(-c3ncc4c(N5CC6CCC(C5)N6)nc(OC[C@]56CCCN5[C@H](COC(=O)N5CC7(C5)CN(c5cc([C@H](C(=O)N8C[C@H](O)C[C@H]8C(=O)N[C@@H](C)c8ccc(-c9scnc9C)cc8)C(C)C)on5)C7)CC6)nc4c3F)c12` [Compound 340, [(3S,8R)-8-[[4-(3,8-diazabicyclo[3.2.1]octan-3-yl)-7-(8-ethyl-3-hydroxy-1-naphthyl)-8-fluoro-pyrido[4,3-d]pyrimidin-2-yl]oxymethyl]-1,2,3,5,6,7-hexahydropyrrolizin-3-yl]methyl 6-[5-[(1S)-1-[(2S,4R)-4-hydroxy-2-[[(1S)-1-[4-(4-methylthiazol-5-yl)phenyl]ethyl]carbamoyl]pyrrolidine-1-carbonyl]-isobutyl]isoxazol-3-yl]-2,6-diazaspiro[3.3]heptane-2-carboxylate], the Dmax was in the range of 80 to 100% and the DC50 was under 600 nM.
The compound `CCc1cccc2cc(O)cc(-c3ncc4c(N5CCCCCC5)nc(OC[C@]56CCCN5[C@H](COc5cc([C@@H](C(=O)N7C[C@H](O)C[C@H]7C(=O)N[C@@H](C)c7ccc(-c8scnc8C)cc7)C(C)C)on5)CC6)nc4c3F)c12` [Compound 207, (2S,4R)-1-[(2S)-2-(3-{[(3S,7aR)-7a-({[4-(azepan-1-yl)-7-(8-ethyl-3-hydroxynaphthalen-1-yl)-8-fluoropyrido[4,3-d]pyrimidin-2-yl]oxy}methyl)-hexahydro-1H-pyrrolizin-3-yl]methoxy}-1,2-oxazol-5-yl)-3-methylbutanoyl]-4-hydroxy-N-[(1S)-1-[4-(4-methyl-1,3-thiazol-5-yl)phenyl]ethyl]pyrrolidine-2-carboxamide] showed a DC50 of over 3000 nM.
Take `CCc1cccc2cc(O)cc(-c3cc4nc(OC[C@]56CCCN5[C@H](COC(=O)N5CCN(c7cc(C(C(=O)N8C[C@H](O)C[C@H]8C(=O)N[C@@H](C)c8ccc(-c9scnc9C)cc8)C(C)C)on7)CC5)CC6)nc(N5CC6CCC(C5)N6)c4cn3)c12` (single isomer, unassigned) [Compound 266]: the Dmax was in the range of 80 to 100% and the DC50 was under 600 nM.
In the case of `C#Cc1c(F)ccc2cc(O)cc(-c3ncc4c(N5CC6CCC(C5)N6)nc(OC[C@@]56CCCN5[C@H](COc5cc([C@@H](C(=O)N7C[C@H](O)C[C@H]7C(=O)N[C@@H](C)c7ccc(-c8scnc8C)cc7)C(C)C)on5)CC6)nc4c3F)c12` [Compound 315, (2S,4R)-1-[(2S)-2-[3-[[(3S,8S)-8-[[4-(3,8-diazabicyclo[3.2.1]octan-3-yl)-7-(8-ethynyl-7-fluoro-3-hydroxy-1-naphthyl)-8-fluoro-pyrido[4,3-d]pyrimidin-2-yl]oxymethyl]-1,2,3,5,6,7-hexahydropyrrolizin-3-yl]methoxy]isoxazol-5-yl]-3-methyl-butanoyl]-4-hydroxy-N-[(1S)-1-[4-(4-methylthiazol-5-yl)phenyl]ethyl]pyrrolidine-2-carboxamide], the DC50 is over 3000 nM.
`CCc1cccc2cc(O)cc(-c3ncc4c(N5CC6CCC(C5)N6)nc(OCCN5CCC(C)(CCOc6cc([C@@H](C(=O)N7C[C@H](O)C[C@H]7C(=O)N[C@@H](C)c7ccc(-c8scnc8C)cc7)C(C)C)on6)CC5)nc4c3F)c12` [Compound 238] had a Dmax of 80 to 100% and a DC50 of under 600 nM.
Taken in the same sequence, the figures for `C#Cc1c(F)ccc2cc(O)cc(-c3ncc4c(N5CC6CCC(C5)N6)nc(OCCN5CCC(CC6CN(c7cc([C@@H](C(=O)N8C[C@H](O)C[C@H]8C(=O)N[C@@H](C)c8ccc(-c9ccnn9C)cc8)C(C)C)on7)C6)CC5)nc4c3F)c12` [Compound 160, (2S,4R)-1-[(2S)-2-(3-{3-[(1-{2-[(4-{3,8-diazabicyclo[3.2.1]octan-3-yl}-7-(8-ethynyl-7-fluoro-3-hydroxynaphthalen-1-yl)-8-fluoropyrido[4,3-d]pyrimidin-2-yl)oxy]ethyl}piperidin-4-yl)methyl]azetidin-1-yl}-1,2-oxazol-5-yl)-3-methylbutanoyl]-4-hydroxy-N-[(1S)-1-[4-(1-methyl-1H-pyrazol-5-yl)phenyl]ethyl]pyrrolidine-2-carboxamide] were 20 to 60% and over 3000 nM.
The compound `Cc1ncsc1-c1ccc([C@H](C)NC(=O)[C@@H]2C[C@@H](O)CN2C(=O)[C@@H](c2cc(OC[C@@H]3CC[C@]4(COc5nc(N6CC7CCC(C6)N7)c6cnc(-c7cc(O)cc(Cl)c7C7CC7)c(F)c6n5)CCCN34)no2)C(C)C)cc1` [Compound 64, (2S,4R)-1-[(2R)-2-(3-{[(3S,7aS)-7a-({[7-(3-chloro-2-cyclopropyl-5-hydroxyphenyl)-4-{3,8-diazabicyclo[3.2.1]octan-3-yl}-8-fluoropyrido[4,3-d]pyrimidin-2-yl]oxy}methyl)-hexahydro-1H-pyrrolizin-3-yl]methoxy}-1,2-oxazol-5-yl)-3-methylbutanoyl]-4-hydroxy-N-[(1S)-1-[4-(4-methyl-1,3-thiazol-5-yl)phenyl]ethyl]pyrrolidine-2-carboxamide] displayed a Dmax of 20 to 60% and a DC50 of under 600 nM.
Compound `C#Cc1c(F)ccc2cc(O)cc(-c3ncc4c(N5CC6CCC(C5)N6)nc(OCCN5CCC(F)(CN6CCN(c7cc([C@H](C(=O)N8C[C@H](O)C[C@H]8C(=O)N[C@@H](C)c8ccc(-c9scnc9C)cc8)C(C)C)on7)CC6)CC5)nc4c3F)c12` [Compound 172, (2S,4R)-1-[(2R)-2-(3-{4-[(1-{2-[(4-{3,8-diazabicyclo[3.2.1]octan-3-yl}-7-(8-ethynyl-7-fluoro-3-hydroxynaphthalen-1-yl)-8-fluoropyrido[4,3-d]pyrimidin-2-yl)oxy]ethyl}-4-fluoropiperidin-4-yl)methyl]piperazin-1-yl}-1,2-oxazol-5-yl)-3-methylbutanoyl]-4-hydroxy-N-[(1S)-1-[4-(4-methyl-1,3-thiazol-5-yl)phenyl]ethyl]pyrrolidine-2-carboxamide] yielded a Dmax of 80 to 100% and a DC50 of under 600 nM.
As for `C#Cc1c(F)ccc2cc(O)cc(-c3ncc4c(N5CC6CCC(C5)N6)nc(OCCN5CCC(CC6CCN(c7cc([C@@H](C(=O)N8C[C@H](O)C[C@H]8C(=O)N[C@@H](C)c8ccc(-c9scnc9C)cc8)C(C)C)on7)CC6)CC5)nc4c3F)c12` (single isomer, unassigned) [Compound 308], the Dmax lay in the range of 60 to 80% and the DC50 is under 600 nM.
In turn, `CCc1cccc2cc(O)cc(-c3ncc4c(N5CC6CCC(C5)N6)nc(OC[C@@]56CCCN5[C@H](COC(=O)NCc5cc([C@H](C(=O)N7C[C@H](O)C[C@H]7C(=O)N[C@@H](C)c7ccc(-c8scnc8C)cc7)C(C)C)on5)CC6)nc4c3F)c12` [Compound 104, [(3S,7aS)-7a-{[(4-{3,8-diazabicyclo[3.2.1]octan-3-yl}-7-(8-ethyl-3-hydroxynaphthalen-1-yl)-8-fluoropyrido[4,3-d]pyrimidin-2-yl)oxy]methyl}-hexahydro-1H-pyrrolizin-3-yl]methyl N-({5-[(2R)-1-[(2S,4R)-4-hydroxy-2-{[(1S)-1-[4-(4-methyl-1,3-thiazol-5-yl)phenyl]ethyl]carbamoyl}pyrrolidin-1-yl]-3-methyl-1-oxobutan-2-yl]-1,2-oxazol-3-yl}methyl) carbamate] had a Dmax of 80 to 100% and a DC50 of under 600 nM.
For `CCc1cccc2cc(O)cc(-c3ncc4c(N5CC6CCC(C5)N6)nc(OC[C@]56CCCN5[C@H](COC(=O)N5CCN(c7cc([C@@H](C(=O)N8C[C@H](O)C[C@H]8C(=O)N[C@@H](C)c8ccc(-c9scnc9C)cc8)C(C)C)on7)C[C@H]5C)CC6)nc4c3F)c12` [Compound 125, [(3S,7aR)-7a-{[(4-{3,8-diazabicyclo[3.2.1]octan-3-yl}-7-(8-ethyl-3-hydroxynaphthalen-1-yl)-8-fluoropyrido[4,3-d]pyrimidin-2-yl)oxy]methyl}-hexahydro-1H-pyrrolizin-3-yl]methyl (2R)-4-{5-[(2S)-1-[(2S,4R)-4-hydroxy-2-{[(1S)-1-[4-(4-methyl-1,3-thiazol-5-yl)phenyl]ethyl]carbamoyl}pyrrolidin-1-yl]-3-methyl-1-oxobutan-2-yl]-1,2-oxazol-3-yl}-2-methylpiperazine-1-carboxylate] the same measures were 20 to 60% and 600 to 1000 nM.
In turn, `C#Cc1c(F)ccc2cccc(-c3ncc4c(N5CC6CCC(C5)N6)nc(OC[C@]56CCCN5[C@H](COC(=O)N5CCN(c7cc(C(C(=O)N8C[C@H](O)C[C@H]8C(=O)N[C@@H](C)c8ccc(-c9scnc9C)cc8)C(C)C)on7)CC5)CC6)nc4c3F)c12` (single isomer, unassigned) [Compound 270, [(3S,7aR)-7a-{[(4-{3,8-diazabicyclo[3.2.1]octan-3-yl}-7-(8-ethynyl-7-fluoronaphthalen-1-yl)-8-fluoropyrido[4,3-d]pyrimidin-2-yl)oxy]methyl}-hexahydro-1H-pyrrolizin-3-yl]methyl 4-{5-[(2R*)-1-[(2S,4R)-4-hydroxy-2-{[(1S)-1-[4-(4-methyl-1,3-thiazol-5-yl)phenyl]ethyl]carbamoyl}pyrrolidin-1-yl]-3-methyl-1-oxobutan-2-yl]-1,2-oxazol-3-yl}piperazine-1-carboxylate] registered a Dmax of 80 to 100% and a DC50 of under 600 nM.
Taken in the same sequence, the figures for `CCc1cccc2cc(O)cc(-c3ncc4c(N5CC6CCC(C5)N6)nc(OCCN5CCC(F)(CN6CCN(c7cc([C@@H](C(=O)N8C[C@H](O)C[C@H]8C(=O)N[C@@H](C)c8ccc(-c9scnc9C)cc8)C(C)C)on7)C[C@H]6C)CC5)nc4c3F)c12` [Compound 195, (2S,4R)-1-[(2S)-2-{3-[(3R)-4-[(1-{2-[(4-{3,8-diazabicyclo[3.2.1]octan-3-yl}-7-(8-ethyl-3-hydroxynaphthalen-1-yl)-8-fluoropyrido[4,3-d]pyrimidin-2-yl)oxy]ethyl}-4-fluoropiperidin-4-yl)methyl]-3-methylpiperazin-1-yl]-1,2-oxazol-5-yl}-3-methylbutanoyl]-4-hydroxy-N-[(1S)-1-[4-(4-methyl-1,3-thiazol-5-yl)phenyl]ethyl]pyrrolidine-2-carboxamide] were under 20% and 1000 to 3000 nM.

As usually defined, the Dmax is the largest share of the target that was removed. A word on the DC50: it is the concentration giving 50% degradation. Higher therefore signals a less potent degrader.
